Assays:
SH-SY5Y(APPSwe) cells = assay: Western-blot and transcript analysis in SH-SY5Y(APPSwe) cells; format: cell-based, human; conditions: NR 1 mM
Protocol: Human: Total RNA was extracted using guanidine-isothiocyanate lysis (PureLink, Ambion, Waltham, Mass.) from cortex samples, and RNA integrity and concentration was verified using Bioanalysis (Agilent, Santa Clara, Calif.). Samples were randomized based on diagnostic group and assayed in triplicate on a real-time PCR cycler (ABI 7500, Applied Biosystems, Foster City) in 96-well optical plates. qPCR was performed using Taqman hydrolysis probe primer sets (Applied Biosystems) specific for the following human transcripts: HSPA9, HSPD1, YMEIL1, DNM1L, BECN1, SQSTM1, PARK2, COX5A, CYC1. A primer set specific for human GAPDH was used as a control housekeeping transcript. For the APPSwe-expressing SH-SY5Y cell line, total RNA was extracted […] using TriPure RNA isolation reagent, and expression of selected transcripts was analyzed using the LightCycler480 system (Roche) and LightCycler® 480 SYBR Green I Master reagent (Roche). The GAPDH gene was used as housekeeping reference. The ddCT method was employed to determine relative levels of each amplicon. […] The SH-SY5Y neuroblastoma cell line expressing the APP Swedish K670N/M671L double mutation (APPSwe) was a kind gift of Prof. Cedazo-Minguez (Karolinska Institute, Sweden). Cells were grown in DMEM/F-12, supplemented with 10% fetal bovine serum (FBS, Gibco), GlutaMAX (100×, Gibco) and penicillin/streptomycin (1×, Gibco). Cells were selected in 4 μg/mL Geneticin® Selective Antibiotic (G418 Sulfate, Sigma) and grown for three generations before experiments with cells plated and passaged at 4×10^3 cells/ml and 60% confluence, respectively. Cells were cultured at 37° C. under a 5% CO2 atmosphere and tested for mycoplasma using Mycoprobe (#CUL001B, R&D systems) following the manufacturer's instructions. Cells were treated with 10 μg/mL dox, NR 1 or 3 mM, ISRIB 0.5 μM (Sigma), as indicated for 24 hours before cell harvesting or fixation. For the immunostaining, cells were fixed with 1× Formal-Fixx (Thermo Scientific) for 15 min. […]

old mice = assay: Myriocin treatment of aged mice: muscle function and amyloid deposits; format: in vivo, mouse; conditions: 0.4 mg/kg intra peritoneal injection for 8 weeks
Source text: FIG. 14A is a graph showing that inhibition of ceramide synthesis resolves Aβ proteotoxic stress in human cells. […] (FIG. 14C) Myriocin, administered as described in FIG. 14B, improves grip strength, exercise capacity (distance run), balance (latency square in beamwalk), and movement coordination (rotarod latency) in old mice. (FIG. 14D) Myriocin treatment reduces amyloid deposits, as shown by immunodetection with Thioflavin S (ThS), in the muscle tissues of old mice.

SMILES	MSR transcript levels (SH-SY5Y(APPSwe) cells; 24 h, dox 10 μg/mL)	oxidative phosphorylation (OXPHOS) protein levels (SH-SY5Y(APPSwe) cells; Western-blot)	balance (latency square in beamwalk) (old mice; mice 18 months or older)	exercise capacity (distance run) (old mice; mice 18 months or older)	grip strength (old mice; mice 18 months or older)	movement coordination (rotarod latency) (old mice; mice 18 months or older)	amyloid deposits in muscle tissues, Thioflavin S (ThS) (old mice; old mice)
NC(=O)c1ccc[n+]([C@@H]2O[C@H](CO)[C@@H](O)[C@H]2O)c1 [NR, Nicotinamide Riboside triflate]	increased	increases					
CCCCCCC(=O)CCCCCC/C=C/C[C@@H](O)[C@H](O)[C@@](N)(CO)C(=O)O [Myriocin, (E,2S,3R,4R)-2-amino-3,4-dihydroxy-2-(hydroxymethyl)-14-oxoicos-6-enoic acid]			improves	improves	improves	improves	reduces
